Measurements published in patent US9012647B2, “Nitroxide modified non-steroidal anti-inflammatory compounds and uses thereof in the treatment and prevention of diseases or disorders” (The United States of America, as Represented by the …, priority 2011, dated 2015).
Like-named read-outs stand apart in the source and are kept apart here.

Legend:
[1] = Maximum tolerated dose, IP injection; assay type: in vivo; conditions: nude mice, monitored up to 24 h, death as end point; for MTD at 24 h: female, athymic nude, mouse, in vivo
Experimental: All animal experiments were carried out in compliance with the Guide for the Care and Use of Laboratory Animal Resources (National Research Council, 1996) and were approved by the National Cancer Institute Animal Care and Use Committee. Female athymic nude mice were supplied at 6 weeks of age by the Frederick Cancer Research Center and were housed five per cage in a climate-controlled environment. […] Each animal was weighed individually on the same day as the intraperitoneal (IP) injection. Different dosages were used to determine the maximum tolerated dose to be given to the animals. Each animal was monitored for up to 24 h and death was the end point of the experiment.

[2] = tested on: LTB4 formation; assay: Leukotriene B4 ELISA in A549 cells; assay type: cell-based; conditions: for activity at 10 µg/mL / activity at 100 µg/mL: Homo sapiens, A549; for activity at 10 µg/mL / activity at 100 µg/mL / LTB4 / LTB4 % of control: Table 2B; for activity at 10 µg/mL / activity at 100 µg/mL / LTB4 % of control: control 100 ± 1 pg ml^−1; for LTB4: control 100 ± 1, mean ± S.D., n=3; for inhibition of LTB4 formation: at 10 μg ml^−1 or 100 μg ml^−1
Experimental: The A549 cell line was grown in Dulbecco's Modified Eagle Medium (DMEM) also supplemented with 10% heat inactivated fetal bovine serum and penicillin-streptomycin. […] The media was changed twice a week.
PGE2 was measured by enzyme enzyme-linked immunosorbent assay (ELISA) (Cayman Chemical, Ann Arbor, Mich.). (1) or (2) was dissolved in DMSO at a concentration of 10 mg ml^−1 for the in vitro experiments. A549 cells in 24 well plates were treated with the compound for 30 min., then arachidonic acid (20 μg ml^−1) was added at 37° C. for 5 min. The samples were frozen at −80° C. until assayed for PGE2. A 100 μl sample was added to EIA buffer (900 μl). Diluted sample (25 μl) was then added to a 96 well plate. The samples were incubated overnight at 4° C. The plate was then washed 5 times ([…]) and […] was added. The absorbance at 450 nm was determined in an ELISA reader. Tables 1A-1B show the mean value±S.D. of 3 determinations. Percents were obtained using the formula: %: sample pg/ml/control pg/ml×100.
Several recent modified NSAIDs target both prostaglandin as well as leukotriene (Martel-Pelletier et al., Ann. Rheum. Dis., 62:501-09 (2003)). Since nitroxides inhibit lipoxygenase (Rachmilewitz et al., Gut, 35: 1181-88 (1994)), the inhibition of LTB4 in A549 cells by these compounds was evaluated. Leukotriene B4 from A549 cells treated as described above was examined using an ELISA assay kit (Cayman Chemical, Ann Arbor, Mich.; Cat No. 520111) according to the manufacturer's instructions. Tables 2A-2B show the mean value±S.D. of 3 determinations. Percents were obtained using the formula: %: sample pg/ml/control pg/ml×100.

[3] = tested on: PGE2 production; assay: PGE2 ELISA in A549 cells stimulated with arachidonic acid; assay type: cell-based; conditions: Table 1B; for activity at 10 µg/mL / activity at 100 µg/mL: Homo sapiens, A549, read-out: PGE-2 % of control; for activity at 10 µg/mL / activity at 100 µg/mL / PGE-2 % of control: control 42 ± 3 pg ml^−1; for PGE-2: control 42 ± 3, mean ± S.D., n=3
[4] = Carrageenan-induced foot paw edema model; assay type: in vivo; conditions: dose decreasing the inflammatory response by 50%, n = 4
Experimental: The in vivo anti-inflammatory activity was evaluated using the carrageenan-induced foot paw edema model reported previously (Winter et al. Proc. Soc. Exp. Biol. Med., 111: 544-47 (1962)).

[5] = Superoxide scavenging: ferricytochrome c reduction, hypoxanthine/xanthine oxidase; assay type: biochemical; conditions: PBS pH 7.4, 25° C., cyt c 60 μM; read-out: IC50, reduction rate of ferricytochrome c (superoxide scavenging)
[6] = Cyclic voltammetry (oxidation potential); assay type: physicochemical
Experimental: Nitroxides undergo one electron reduction and oxidation, which provides their antioxidant characteristics. Cyclic Voltammetry (CV) measurements of the nitroxide-NSAIDs were taken with an EG Potensiostat/Galvanostat Model 273A, from AMETEK Princeton Applied Research (Oak Ridge, Tenn.). Measurements were performed at room temperature in PBS or 50% organic solvents, using the platinum auxiliary electrode and Ag/AgCl (saturated KCl) reference electrode.

[7] = previous reports at pH 7.4; cited from earlier work
[8] = Krishna et al. 1992, cited from earlier work; for oxidation potential Eox: vs. NHE
[9] = Hahn et al. 1992; cited from earlier work

Compound CC(=O)Oc1ccccc1C(=O)O [ASA, acetyl salicylic acid] has an MTD at 24 h [1] of 100 mg/kg, an activity at 10 µg/mL ([2]; dose 10 μg ml^−1) of 64% and an activity at 100 µg/mL ([2]; dose 100 μg ml^−1) of 62%. For the same compound, the LTB4 ([2]; dose 10 μg ml^−1) was “(64 ± 13) pg ml^−1”, the LTB4 ([2]; dose 100 μg ml^−1) was “(62 ± 5) pg ml^−1” and the “inhibition of LTB4 formation” value [2] was “no inhibition was observed”. For the same compound, the activity at 10 µg/mL ([3]; dose 10 μg ml^−1) was 107%, the activity at 100 µg/mL ([3]; dose 100 μg ml^−1) was 23% and the PGE-2 ([3]; dose 10 μg ml^−1) was “(45 ± 7) pg ml^−1”. The PGE-2 ([3]; dose 100 μg ml^−1) was “(10 ± 2) pg ml^−1”.

Work on COc1ccc2c(c1)c(CC(=O)O)c(C)n2C(=O)c1ccc(Cl)cc1 [IND, indomethacin] yielded an MTD at 24 h [1] of 5 mg/kg, an activity at 10 µg/mL ([2]; dose 10 μg ml^−1) of 100% and an activity at 100 µg/mL ([2]; dose 100 μg ml^−1) of 82%. For the same compound, the LTB4 ([2]; dose 10 μg ml^−1) was “(100 ± 10) pg ml^−1”, the LTB4 ([2]; dose 100 μg ml^−1) was “(82 ± 9) pg ml^−1” and the “inhibition of LTB4 formation” value [2] was “no inhibition was observed”. For the same compound, the “Anti-inflammatory ED50” value [4] was 4.2 mg/kg, the activity at 10 µg/mL ([3]; dose 10 μg ml^−1) was 50% and the activity at 100 µg/mL ([3]; dose 100 μg ml^−1) was 12%. For the same compound, the PGE-2 ([3]; dose 10 μg ml^−1) was “(21 ± 3) pg ml^−1” and the PGE-2 ([3]; dose 100 μg ml^−1) was “(5 ± 1) pg ml^−1”.

In the case of CC1(C)CCCC(C)(C)N1[O] [TEMPO, 2,2,6,6-Tetramethyl-1-piperidinyloxy], the “Maximum Tolerated Dose (MTD)” value [1] is reported as 140 mg/kg, the IC50 [5] is reported as ~50 µM and the “LTB4 % of control” value ([2]; dose 10 μg ml^−1) is reported as 100%. For the same compound, the LTB4 ([2]; dose 10 μg ml^−1) was “(100 ± 2) pg ml^−1”, the “LTB4 % of control” value ([2]; dose 100 μg ml^−1) was 100% and the LTB4 ([2]; dose 100 μg ml^−1) was “(100 ± 1) pg ml^−1”. The “inhibition of LTB4 formation” value [2] was “no inhibition was observed”, the “oxidation potential Eox” value ([6]; in acetonitrile, same conditions, vs. NHE) was 1.0 V and the “PGE-2 % of control” value ([3]; dose 10 μg ml^−1) was 133%. For the same compound, the PGE-2 ([3]; dose 10 μg ml^−1) was “(56 ± 10) pg ml^−1”, the “PGE-2 % of control” value ([3]; dose 100 μg ml^−1) was 123% and the PGE-2 ([3]; dose 100 μg ml^−1) was “(52 ± 8) pg ml^−1”. For the same compound, the “rate constant with superoxide” value [7] was 120000 M⁻¹ s⁻¹, the E1/2 [8] was 197 mV and the “oxidation potential Eox” value [8] was 0.622 V.

For CC1(C)CC(O)CC(C)(C)N1[O] [TEMPOL], the “tolerance (maximum tolerated dose)” value [9] is listed as 275 mg/kg, the “rate constant with superoxide” value [7] is listed as 65000 M⁻¹ s⁻¹ and the “oxidation potential Eox” value [8] is listed as 0.810 V.

For CC(=O)Oc1ccccc1C(=O)OC1CC(C)(C)N([O])C(C)(C)C1 [compound (1), TEMPO-aspirin], the “reversibility of cyclic voltammograph” value [6] was “reversible”, the “oxidation potential Eox” value ([6]; in PBS, versus Ag/AgCl) was 0.72 V and the oxidation potential Eox ([6]; in PBS, vs NHE) was 0.83 V.

For COc1ccc2c(c1)c(CC(=O)OC1CC(C)(C)N([O])C(C)(C)C1)c(C)n2C(=O)c1ccc(Cl)cc1 [compound (2), TEMPO-indomethacin], the “reversibility of cyclic voltammograph” value [6] was “reversible” and the “oxidation potential Eox” value ([6]; in acetonitrile (100 mM tetrabutylammonium chloride), versus Ag/AgCl) was 1.312 V.
